Assay results: ChEMBL document CHEMBL3997785, “Optimization of 2-Anilino 4-Amino Substituted Quinazolines into Potent Antimalarial Agents with Oral in Vivo Activity” (J Med Chem, 2017)
≈ marks a conversion by molar mass, not a printed value. Calls of active or inactive are those of the source. No cut-off for these calls is given here.

Legend:
[1] = Half life in mouse liver microsomes at 1 uM in presence of NADPH by LC-MS method; format: ADME, microsome
[2] = Selectivity index, ratio of EC50 for human HepG2 cells to EC50 for Plasmodium falciparum 3D7 asexual blood stage infected in human erythrocytes; format: toxicity, cell-based; conditions: read-out: Ratio EC50
[3] = Aqueous solubility of the compound at pH 6.5 by nephelometry; format: physicochemical
Liver [4] = experiment: Drug metabolism in mouse liver microsomes assessed as O-demethylation of 6 and 7 methoxy groups at 1 uM after 60 mins in presence of NADPH by LC-MS method; format: ADME, microsome; conditions: 1 h
[5] = Hepatic extraction ratio in human liver microsomes at 1 uM in presence of NADPH by LC-MS method; format: ADME, microsome; conditions: read-out: ERH
HepG2 = experiment: Cytotoxicity against human HepG2 cells assessed as growth inhibition after 48 hrs by Cell Titer-Glo assay; format: cell-based; conditions: HepG2, 48 h
[6] = Hepatic extraction ratio in mouse liver microsomes at 1 uM in presence of NADPH by LC-MS method; format: ADME, microsome; conditions: read-out: ERH
[7] = Intrinsic clearance in human liver microsomes at 1 uM in presence of NADPH by LC-MS method; format: ADME, microsome; conditions: read-out: CLH
[8] = Aqueous solubility of the compound at pH 2 by nephelometry; format: physicochemical
Liver [9] = experiment: Drug metabolism in human liver microsomes assessed as O-demethylation of 6 and 7 methoxy groups at 1 uM after 60 mins in presence of NADPH by LC-MS method; format: ADME, microsome; conditions: 1 h
Plasmodium falciparum [10] = experiment: Antimalarial activity against Plasmodium falciparum 3D7 asexual blood stage infected in human erythrocytes incubated for 72 hrs by LDH assay; format: functional, cell-based; conditions: 3D7, 72 h
[11] = Intrinsic clearance in mouse liver microsomes at 1 uM in presence of NADPH by LC-MS method; format: ADME, microsome; conditions: read-out: CLH
[12] = Half life in human liver microsomes at 1 uM in presence of NADPH by LC-MS method; format: ADME, microsome
Plasmodium falciparum [13] = experiment: Antimalarial activity against Plasmodium falciparum NF54 harboring pfs16-LUC-GFP early stage 1 to 3 gametocytes after 48 hrs by MitoTracker Red staining based confocal microscopy; format: functional; conditions: NF54, 48 h
Liver [14] = experiment: Drug metabolism in mouse liver microsomes assessed as mono-oxygenation at 6th position of quinazoline at 1 uM after 60 mins in presence of NADPH by LC-MS method; format: ADME, microsome; conditions: 1 h
Plasma [15] = experiment: Drug uptake in Plasmodium berghei ANKA infected Swiss black mouse plasma at 20 mg/kg, ip measured after 20 hrs; format: ADME, organism-based; conditions: in vivo
Plasmodium falciparum [16] = experiment: Antimalarial activity against Plasmodium falciparum NF54 harboring pfs16-LUC-GFP late stage 4 to 5 gametocytes after 48 hrs by MitoTracker Red staining based confocal microscopy; format: functional; conditions: NF54, 48 h
Plasmodium falciparum [17] = experiment: Antimalarial activity against chloroquine and mefloquine resistant Plasmodium falciparum W2mef infected in human erythrocytes incubated for 72 hrs by LDH assay; format: functional, cell-based
Liver [18] = experiment: Drug metabolism in human liver microsomes assessed as mono-oxygenation at 6th position of quinazoline at 1 uM after 60 mins in presence of NADPH by LC-MS method; format: ADME, microsome; conditions: 1 h
[19] = Ratio of EC50 for Plasmodium falciparum NF54-pfs16-LUC-GFP ring stage gametocytes to EC50 for Plasmodium falciparum 3D7 asexual blood stage infected in human erythrocytes; format: functional
Plasmodium falciparum [20] = experiment: Antimalarial activity against Plasmodium falciparum 3D7 infected in human erythrocytes assessed as arrest at trophozoite stage of asexual life cycle leading to parasite death at 10 times EC50 up to 48 hrs by Giemsa-staining based assay relative to control; format: functional, cell-based
Plasmodium berghei [21] = experiment: Antimalarial activity against Plasmodium berghei ANKA infected Swiss black mouse model at 20 mg/kg administered via oral gavage for 4 days starting 4 hrs post infection by microscopic method; format: functional
Liver [22] = experiment: Drug metabolism in human liver microsomes assessed as N-demethylation of methyl piperidine or piperazine at 1 uM after 60 mins in presence of NADPH by LC-MS method; format: ADME, microsome; conditions: 1 h
Plasmodium falciparum [23] = experiment: Antimalarial activity against synchronous culture of Plasmodium falciparum 3D7 infected in human erythrocytes assessed as development arrest at ring stage of asexual life cycle leading to parasite death at 10 times EC50 up to 48 hrs by Giemsa-staining based assay relative to control; format: functional, cell-based
[24] = Ratio of EC50 for Plasmodium falciparum NF54-pfs16-LUC-GFP early stage gametocytes to EC50 for Plasmodium falciparum 3D7 asexual blood stage infected in human erythrocytes; format: functional
Plasmodium falciparum [25] = experiment: Antimalarial activity against synchronous culture of Plasmodium falciparum 3D7 ring stage parasite infected in human erythrocytes incubated for 24 hrs followed by compound wash out and measured after 24 hrs by NanoGlo-reagent based bioluminescence assay; format: functional, cell-based; conditions: 3D7, 24 h
Plasmodium falciparum [26] = experiment: Antimalarial activity against synchronous culture of Plasmodium falciparum 3D7 ring stage parasite infected in human erythrocytes incubated for 6 hrs followed by compound wash out and measured after 24 hrs by NanoGlo-reagent based bioluminescence assay; format: functional, cell-based
Plasmodium falciparum [27] = experiment: Antimalarial activity against synchronous culture of Plasmodium falciparum 3D7 ring stage parasite infected in human erythrocytes incubated for 3 hrs followed by compound wash out and measured after 24 hrs by NanoGlo-reagent based bioluminescence assay; format: functional, cell-based
Plasma [28] = experiment: Drug uptake in Plasmodium berghei ANKA infected Swiss black mouse plasma at 20 mg/kg, po via gavage measured after 20 hrs; format: ADME, organism-based; conditions: in vivo
Plasmodium falciparum [29] = experiment: Antimalarial activity against Plasmodium falciparum NF54 harboring pfs16-LUC-GFP ring stage gametocytes after 24 hrs by MitoTracker Red staining based confocal microscopy; format: functional; conditions: NF54, 24 h
Liver [30] = experiment: Drug metabolism in mouse liver microsomes assessed as N-demethylation of methyl piperidine or piperazine at 1 uM after 60 mins in presence of NADPH by LC-MS method; format: ADME, microsome; conditions: 1 h
Plasmodium berghei [31] = experiment: Antimalarial activity against Plasmodium berghei ANKA infected Swiss black mouse at 20 mg/kg, ip administered for 4 days starting 4 hrs post infection by microscopic method; format: functional
Liver [32] = experiment: Drug metabolism in human liver microsomes assessed as hydro defluorination at 1 uM after 60 mins in presence of NADPH by LC-MS method; format: ADME, microsome; conditions: 1 h
Liver [33] = experiment: Drug metabolism in mouse liver microsomes assessed as hydro defluorination at 1 uM after 60 mins in presence of NADPH by LC-MS method; format: ADME, microsome; conditions: 1 h

Compound	half-life at 1 µM [1] [h]	selectivity ratio [2]	solubility kinetic [3] [µM]	hepatic extraction ratio at 1 µM [5]	EC50 (HepG2) [nM]	hepatic extraction ratio at 1 µM [6]	microsomal CLint at 1 µM [7] [µL/min/mg]	solubility kinetic [8] [µM]	EC50 (Plasmodium falciparum [10]) [nM]	microsomal CLint at 1 µM [11] [µL/min/mg]	half-life at 1 µM [12] [h]	EC50 (Plasmodium falciparum [13]) [nM]	Drug metabolism (Liver [14])	Drug uptake (Plasma [15])	EC50 (Plasmodium falciparum [16]) [nM]	EC50 (Plasmodium falciparum [17]) [nM]	Drug metabolism (Liver [18])	Ratio EC50 [19]	Activity (Plasmodium falciparum [20])	EC50 (Plasmodium falciparum [29]) [nM]	also measured
COc1cc2nc(Nc3ccc(F)cc3)nc(NCC3CCCO3)c2cc1OC (stereo unspecified)	0.4	96	3.1 to 6.3 (≈ 1.24 to 2.51 µg/mL)	0.52	5500	0.61	27	25 to 50 (≈ 9.96 to 19.9 µg/mL)	57	72	1.07										Drug metabolism (Liver [4]): Metabolite_Detected; Drug metabolism (Liver [9]): Metabolite_Detected
CN1CCN(CCNc2nc(Nc3ccc(Cl)c(F)c3)nc3ccccc23)CC1.Cl.Cl	0.783	275	10.9 to 22	0.47	7500	0.44	23	> 90	27	37	1.28	453	Metabolite_Detected	Active	4000	57	Metabolite_Detected	10	inactive	207	Activity (Plasmodium berghei [21]): >90%; Drug metabolism (Liver [22]): Metabolite_Detected; Activity (Plasmodium falciparum [23]): Active; Ratio EC50 [24]: 15 - 25; EC50 (Plasmodium falciparum [25]): 637 nM; Activity (Plasmodium falciparum [26]): Dose dependent effect; EC50 (Plasmodium falciparum [26]): 3120 nM; EC50 (Plasmodium falciparum [27]): 3340 nM; Drug uptake (Plasma [28]): Active; Drug metabolism (Liver [30]): Metabolite_Detected; Activity (Plasmodium berghei [31]): >98%
COc1cc2nc(Nc3ccc(F)cc3)nc(NCc3ccccc3)c2cc1OC	0.817	109	1.6 to 3.1 (≈ 0.647 to 1.25 µg/mL)	< 0.22	2800	0.43	< 7	1.6 to 3.1 (≈ 0.647 to 1.25 µg/mL)	41	35	> 4.12										Drug metabolism (Liver [4]): Metabolite_Detected; Drug metabolism (Liver [9]): Metabolite_Detected
CN1CCC(Nc2nc(Nc3ccc(F)c(Cl)c3)nc3ccccc23)CC1.Cl.Cl	2.48	145	11.3 to 23	< 0.22	5100	0.2	< 7	> 90	35	12	> 4.25	515	Metabolite_Detected	Active	3700	54	Metabolite_Detected	10	inactive	223	Drug metabolism (Liver [32]): Metabolite_Detected; Drug metabolism (Liver [33]): Metabolite_Detected; Activity (Plasmodium berghei [21]): Active; Drug metabolism (Liver [22]): Metabolite_Detected; Activity (Plasmodium falciparum [23]): Active; Ratio EC50 [24]: 15 - 25; Drug uptake (Plasma [28]): Active; Drug metabolism (Liver [30]): Metabolite_Detected
CCN(CC)CCCC(C)Nc1ccnc2cc(Cl)ccc12 (stereo unspecified) [CHLOROQUINE]									23						> 40000					20	EC50 (Plasmodium falciparum [25]): 286 nM; EC50 (Plasmodium falciparum [26]): 643 nM; EC50 (Plasmodium falciparum [27]): 608 nM
CN1CCC(Nc2nc(Nc3ccc(Cl)c(F)c3)nc3ccccc23)CC1.Cl.Cl	3.2	179	4.2 to 8.4	0.28	5100	0.16	10	> 90	28	9	3.02	554	Metabolite_Detected	Active	2700	61	Metabolite_Detected	10	inactive	220	Drug metabolism (Liver [22]): Metabolite_Detected; Activity (Plasmodium falciparum [23]): Active; Ratio EC50 [24]: 15 - 25; Drug uptake (Plasma [28]): Active; Drug metabolism (Liver [30]): Metabolite_Detected
